From US8809389B2, “Substituted alkynyl phenoxy compounds as new synergists in pesticidal compositions” (Endura S.p.A., priority 2009, dated 2014)

Key:
[1] = tested on: P450 enzymes (oxidases) of pollen beetle homogenate; assay: Oxidase assay: 7-ethoxycoumarin O-deethylation inhibition in pollen beetle homogenate; format: biochemical, Meligethes aeneus; details: 3 μl of 10 mM compound, enzyme plus acetone = 100
Protocol: The ability of the novel compositions comprising the synergists of Formula (I) to inhibit P450 enzymes, a major mechanism conferring resistance to xenobiotics, was measured using pollen beetle homogenate.
Approximately 50 non-sexed adult pollen beetle from each population were homogenised on ice in 1 ml 0.1 M sodium phosphate buffer, pH 7.6, containing, 1 mM EDTA, 1 mM DTT, 1 mM PTU, 1 mM PMSF and centrifuged at 10 000×g for 10 min. The resulting supernatant was used as the enzyme source.
The O-deethylation inhibition by compounds of Example 2 or 3 was measured using 7-ethoxycoumarin (7-EC) according to Ullrich and Weber (Ullrich V and Weber P, The O-dealkylation of 7-ethoxycoumarin by liver microsomes. Z Physiol Chem 353: 1171-1177 (1972)) and adapted to the microplate format as described by DeSousa (De Sousa G, Cuany A, Brun A, Amichot M, Rahmani R, Berge J B, A microfluorometric method for measuring ethoxycoumarin-O-deethylase activity on individual Drosophila melanogaster abdomens: interest for screening resistance in insect populations Analyt. Biochem 229: 86-91 (1995)). Briefly, 7-EC was dissolved in ethanol to make a 20 mM stock solution and diluted by the addition of 0.1 M, pH 7.8 sodium phosphate buffer to give a concentration of 0.5 mM. Fifty microliters of pollen beetle enzyme were added to separate wells of a microplate, followed by the addition of 3 μl 10 mM of either compounds of Example 2 or 3 or acetone only. After 10 min incubation in room temperature, 80 μl 0.5 mM 7-EC was added following by another 5 min at 30° C. The reaction initiated by the addition of 10 μl 9.6 mM NADPH in 0.1 M sodium phosphate, pH 7.8. Enzyme activity was measured in a Victor^2 1420 multilabel counter (Wallac, Milton Keynes, UK) for 60 min with readings taken every 5 min, using an excitation wavelength of 370 nm and an emission wavelength of 460 nm. All assays were performed in triplicate.
The ability of the composition comprising the compounds of Examples 2 and 3 to inhibit oxidases derived from the 3 different pollen beetle populations is presented in Table 7.

[2] = tested on: pollen beetle, Meligethes aeneus; assay: Discriminating dose bioassay: α-cypermethrin in mixture with synergist; format: in vivo; details: for % Mortality: 24 h
Protocol: Two pyrethroid resistant populations originating from two different areas in Poland ‘Rogalin'and lebork’ were collected in July 2008. A putative susceptible population, UK population, was also collected in July 2008 in Hertfordshire, UK. All populations were collected from oilseed rape contained adults only and were kept at room temperature before assays were performed.
Bioassays incorporating the compounds (Compound of Example 2 and Compound of Example 3) dissolved in acetone, were carried out using a diagnostic concentration of α-cypermethrin derived from the above full dose response bioassays in a mixture of 0.01 g L^−1 of the compounds. The concentration of α-cypermethrin used for the discriminating dose bioassays was 0.3 ppm α-cypermethrin for the two polish populations, Rogalin and Lebork and 0.03 ppm α-cypermethrin for UK population. Vials treated with the compounds only, dissolved in acetone and acetone only were used as controls. Ten to 15 replicates were used for each treatment depending on insect numbers within the population. Compounds concentrations chosen conferred no mortality in preliminary bioassays.
Treated vials including the pollen beetles were stored in constant environment facilities at 18±2° C. and 16L: 8D. All bioassays were scored at an endpoint of 24 h after exposure to the insecticide. Insects incapable of coordinated movement (after gentle touching with a pencil brush if necessary) were scored as dead.

Structure (SMILES): CC#CCOc1cc2c(cc1CCC)OCO2 [Example 3, 5-(but-2-ynyloxy)-6-propyl-benzo[1.3]dioxole]
- Inhibition of 7-ethoxycoumarin O-deethylation (%) ([1]; Lebork homogenate): −2.24%
- Inhibition of 7-ethoxycoumarin O-deethylation (%) ([1]; Rogalin homogenate): 27.6%
- Inhibition of 7-ethoxycoumarin O-deethylation (%) ([1]; UK population homogenate): 10.4%
- % Mortality ([2]; Lebork, 0.3 ppm α-cypermethrin in mixture with 0.01 g L^−1 synergist): 86.53%
- Mortality ([2]; Rogalin and Lebork, 0.3 ppm α-cypermethrin in mixture with 0.01 g L^−1 synergist): around 85%
- % Mortality ([2]; Rogalin, 0.3 ppm α-cypermethrin in mixture with 0.01 g L^−1 synergist): 97.06%
- % Mortality ([2]; UK population, 0.03 ppm α-cypermethrin in mixture with 0.01 g L^−1 synergist): 68.78%
- Mortality with the compound only ([2]; synergist only, without α-cypermethrin (data not shown)): No mortality
